Like-named read-outs stand apart in the source and are kept apart here.
Experiments:
[1] = test system: LoVo human colon carcinoma cells; assay: Viability assay (LDH release), LoVo; assay type: cell-based; settings: for viability at 200 µg/mL: Homo sapiens, LoVo, 48 h, read-out: Mean % of viable cells ± SD, LoVo
Protocol: (§1) The anticancer activities of all the synthesized compounds were assessed against two human colon carcinoma cell lines, namely LoVo and HCT-116 (Table 6), via the determination of the mean percents of the viable cancerous cells remaining after being incubated with 200 µg/mL of each test compound for 48 h using LDH assay.
(§2) The samples were diluted in Dulbecco’s Modified Eagle’s Medium, consisting of 10% fetal bovine serum (FBS), added to cells grown and cultured for 24 h in a 5% CO2-humidified incubator at 37 °C. Thereafter, the activity of lactate dehydrogenase released from damaged cells was determined in the collected supernatant aliquots using an ELISA end-point assay (Benchmark Plus, Bio-Rad, CA, USA); 0.1% Triton X-100 in the assay medium and the assay medium only were used as the positive and negative controls, respectively. Cell viability was expressed as a relative percentage of the OD values (at 550 nm) for compound-treated cells (final concentration of 200 µg /mL) and the negative control, which was shown as the mean % ± SD (n = 3). The results of the viability assays for the potential cytotoxic candidates were compared with the % of viable human umbilical vein endothelial cells (HUVEC) at the same concentration. These cells were grown in Dulbecco’s Modified Eagle’s Medium (PAN-Biotech; Barcelona, Spain) containing 10% FBS (Sigma Aldrich; St. Quentin-Fallavier, France), 2 mM Glutamine (Sigma Aldrich), 100 units/mL penicillin and […] streptomycin (Life Technologies; Paisley, UK).

[2] = DPPH radical scavenging assay; assay type: biochemical; settings: for Mean IC50 for scavenging initial DPPH radicals: mean ± SD of three replicates; for IC50: mean ± SD, converted from mg/mL, read-out: Mean IC50 for scavenging initial DPPH radicals (converted)
From the text: In principle, the antioxidant power of a compound in this assay is correlated to its tendency to reduce the stable, purple-colored DPPH radical through a hydrogen atom transfer (HAT) mechanism and/or a single electron transfer mechanism, thereby converting it to the yellow-colored 2,2-diphenyl-1-picrylhydrazine, whereby this reduction is accompanied by a depletion in the amount of the initial DPPH radicals and a change in the absorbance of the test solution accordingly, which can be detected relative to the blank solution at λ = 517 nm.
The antioxidant potencies of all synthesized compounds were investigated using a 1,1 diphenyl-2-picrylhydrazyl (DPPH) radical scavenging assay according to the protocol described by Bersuder et al.. In brief, a 0.5 mL volume of DPPH ethanolic solution was mixed with an equal volume of each sample concentration (i.e., the test compound or butylated hydroxytoluene, BHT, which was used as the reference antioxidant in the positive control experiment), shaken strongly, and incubated at room temperature for 1 h in darkness. The absorbance of the residual DPPH radicals was measured at λ = 519 nm and compared to the negative control (without the test compound or reference antioxidant). The DPPH radical scavenging power was calculated using the following formula: scavenging efficiency (%) = (1 − Acompound/AControl) × 100, where Acompound and Acontrol are the absorbance of the tested compound and the negative control, respectively. […] Additionally, the ± SD values were calculated from three independent triplicate measurements.

[3] = test system: HCT-116 human colon carcinoma cells; assay: Viability assay (LDH release), HCT-116; assay type: cell-based; settings: for viability at 200 µg/mL: Homo sapiens, read-out: Mean % of viable cells ± SD, HCT-116
Protocol: as §1, §2

COX-2 = biological target: T1, COX-2 (Homo sapiens, UniProt P35354); assay: COX-2 inhibitory screening assay (Cayman kit); assay type: biochemical; settings: for Increase in COX-2 inhibitory efficiency by duplicating the concentration: % inhibition at 0.200 mg/mL divided by % inhibition at 0.100 mg/mL; for inhibition at 100 µg/mL: at 0.100 mg/mL; for inhibition at 100 µg/mL / inhibition at 200 µg/mL: read-out: COX-2 mean % inhibition ± SD; for inhibition at 200 µg/mL: at 0.200 mg/mL
T1 construct: purchased Cayman Chemical Company 701080
T1 sequence (P35354 18-604): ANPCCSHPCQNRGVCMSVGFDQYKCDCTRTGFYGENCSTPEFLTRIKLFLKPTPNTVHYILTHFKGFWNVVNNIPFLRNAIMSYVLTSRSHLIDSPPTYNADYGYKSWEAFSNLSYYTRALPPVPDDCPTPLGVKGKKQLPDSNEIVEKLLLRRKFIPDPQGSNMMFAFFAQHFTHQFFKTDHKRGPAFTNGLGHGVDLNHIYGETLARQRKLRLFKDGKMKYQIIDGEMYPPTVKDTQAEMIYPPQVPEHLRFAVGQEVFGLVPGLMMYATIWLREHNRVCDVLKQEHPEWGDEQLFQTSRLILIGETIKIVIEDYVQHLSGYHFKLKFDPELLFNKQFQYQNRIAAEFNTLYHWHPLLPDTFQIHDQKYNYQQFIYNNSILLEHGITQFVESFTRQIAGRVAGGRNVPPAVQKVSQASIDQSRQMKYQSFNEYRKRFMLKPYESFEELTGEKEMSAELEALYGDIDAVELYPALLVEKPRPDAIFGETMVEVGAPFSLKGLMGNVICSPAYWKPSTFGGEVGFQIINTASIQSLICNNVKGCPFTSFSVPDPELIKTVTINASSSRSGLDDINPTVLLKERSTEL
Protocol: Each compound of the two series, 3a–h and 5a–h, was resuspended in 100% DMSO at a final concentration of 10 mg/mL. […] Briefly, 10 µL of the tested compound was added to a mixture of the reaction buffer solution (160 µL of 0.1 M Tris-HCl, pH 8.0, in the presence of 2 mM phenol and 5 mM EDTA), COX-2 (10 µL) and heme (10 µL). After a 10 min incubation at 37 °C, the reaction was started by adding arachidonic acid (10 µL), rapidly mixed and kept at 37 °C for 2 min. PGF2α generated via PGH2 reduction with stannous chloride (30 µL) was incubated at room temperature for 5 min. The PGF2α amount was then determined via an enzyme immunoassay. Prior to incubation with the COX-2 reaction (at room temperature 18 h), the 96-well plate was previously coated with a mouse anti-rabbit monoclonal antibody. Unbound reagents were removed by washing the plate followed by adding Ellman’s reagent to the well. The reaction product displaying a distinct yellow color was measured at 410 nm using a UV microplate reader. The % inhibition was calculated by comparing the PGF2α produced in the compound-treated samples with a control sample, using the following equation: % inhibition is equal to [([PGF2α]control − [PGF2α]sample) /[PGF2α ]control ] × 100. […] The COX-2 inhibitory efficiency was expressed as an inhibition percentage, which was determined via a comparison with the negative control experiments.

[4] = biological target: purified recombinant human LDHA protein (Homo sapiens, UniProt P00338); assay: Lactate dehydrogenase A (LDHA) inhibitory assay; assay type: biochemical; settings: for Fold change of LDHA inhibition as compared to 0.1 mg/mL: % inhibition at 0.200 mg/mL divided by % inhibition at 0.100 mg/mL; for inhibition at 100 µg/mL: at 0.1 mg/mL; for inhibition at 100 µg/mL / inhibition at 200 µg/mL: read-out: LDHA mean % inhibition ± SD; for inhibition at 200 µg/mL: at 0.2 mg/mL
Protocol: The LDHA inhibitory effectiveness was investigated by measuring the amounts of consumed NADH [73]. […] The fluorescence of NADH, which has an excitation wavelength of 340 nm and an emission wavelength of 460 nm, was detected using a spectrofluorometer. […] The LDHA inhibitory efficiency was expressed as an inhibition percentage, which was determined via a comparison with the negative control experiments.

α-amylase = assay: In vitro α-amylase (AA) inhibition assay; settings: mean ± SD of three replicates; for IC50: read-out: Mean IC50 α-Amylase (AA)
Protocol: Then, 180 µL of Labtest (the amylase substrate) was added and the samples were incubated for 8 min, followed by measuring the first reaction at 620 nm to obtain (X1). Afterwards, the reaction mixture was incubated for an additional 5 min at 37 °C; then, the second reaction was measured to obtain the final reading (X2). […] The results were expressed as IC50 µg/mL (as well as µM) and were determined from the standard curves.

Row | Compound | viability at 200 µg/mL ([1]; 200 µg/mL) [%] | Mean IC50 for scavenging initial DPPH radicals [2] [µg/mL] | IC50 [2] [µM] | viability at 200 µg/mL ([3]; HCT-116, 200 µg/mL, 48 h) [%] | Increase in COX-2 inhibitory efficiency by duplicating the concentration (COX-2) [fold] | inhibition at 100 µg/mL (COX-2) [%] | inhibition at 200 µg/mL (COX-2) [%] | Fold change of LDHA inhibition as compared to 0.1 mg/mL [4] [fold] | inhibition at 100 µg/mL [4] [%] | inhibition at 200 µg/mL [4] [%] | Mean IC50 α-Amylase (AA) (α-amylase) [µg/mL] | IC50 (α-amylase) [µM] | viability at 200 µg/mL [1] [%] | viability at 200 µg/mL ([3]; HCT-116, 48 h) [%] | Mean % of viable cells, LoVo ([1]; positive control, 0.1%) [%] | Mean % of viable cells, HCT-116 ([3]; positive control, 0.1%) [%]
1 | COc1cc2nc(SCc3ccc(Cl)cc3)n(-c3ccc([N+](=O)[O-])cc3)c(=O)c2cc1OC [Compound 5h, 2-(4-Chloro-benzylsulfanyl)-6,7-dimethoxy-3-(4-nitro-phenyl)-3H-quinazolin-4-one] | 81.7 ± 3.06 | 364 ± 20 | 752 | 91 ± 2.65 | 2.58 | 11.2 ± 0.99 | 28.9 ± 0.283 | 1.42 | 15.3 ± 1.2 | 21.8 ± 1.34 | 117.667 ± 3.055 | 243 |  |  |  | 
2 | O=c1c2cc(Br)ccc2nc(SCc2cccc([N+](=O)[O-])c2)n1-c1ccc([N+](=O)[O-])cc1 [Compound 5g, 2-(3-Nitro-benzylsulfanyl)-6-bromo-3-(4-nitro-phenyl)-3H-quinazolin-4-one] |  | 200 ± 14 | 390 |  | 1.83 | 14.2 ± 1.77 | 26 ± 2.83 | 1.75 | 15.8 ± 2.05 | 27.7 ± 2.55 | 339.000 ± 4.000 | 660 | 74.7 ± 2.52 | 66.3 ± 3.06 |  | 
3 | COc1ccc(Br)c(CSc2nc3ccc(Cl)cc3c(=O)n2-c2ccc([N+](=O)[O-])cc2)c1 [Compound 5f, 2-(2-Bromo-5-methoxy-benzylsulfanyl)-6-chloro-3-(4-nitro-phenyl)-3H-quinazolin-4-one] | 84.3 ± 3.51 | 241 ± 13 | 452 | 76 ± 1.73 | 1.80 | 28.9 ± 2.69 | 52 ± 2.83 | 1.60 | 31.9 ± 2.48 | 51 ± 3.61 | 106.667 ± 5.033 | 200 |  |  |  | 
4 | COc1cc2[nH]c(=S)n(-c3ccc([N+](=O)[O-])cc3)c(=O)c2cc1OC [Compound 3h, 6,7-Dimethoxy-3-(4-nitro-phenyl)-2-thioxo-2,3-dihydro-1H-quinazolin-4-one] |  | 325 ± 7 | 904 |  | 1.900 | 14.6 ± 0.636 | 27.6 ± 2.19 | 1.47 | 29.9 ± 1.77 | 43.9 ± 1.56 | 122.000 ± 4.583 | 339 | 64 ± 3 | 70.3 ± 3.79 |  | 
5 | COc1ccc(Br)c(CSc2nc3ccc(Br)cc3c(=O)n2-c2ccc(C(F)(F)F)cc2)c1 [Compound 5e, 2-(2-Bromo-5-methoxybenzylsulfanyl)-6-bromo-3-(4-trifluoromethyl-phenyl)-3H-quinazolin-4-one] | 64.3 ± 2.08 | 225 ± 21 | 375 | 79.7 ± 2.52 | 1.67 | 31 ± 2.83 | 51.6 ± 4.88 | 1.29 | 15.2 ± 1.77 | 19.6 ± 2.33 | 150.333 ± 3.512 | 250 |  |  |  | 
6 | COc1cc2nc(SCc3cccc([N+](=O)[O-])c3)n(-c3cccc(C(F)(F)F)c3)c(=O)c2cc1OC [Compound 5c, 2-(3-Nitrobenzylsulfanyl)-6,7-dimethoxy-3(3-trifluoromethyl-phenyl)-3H-quinazolin-4-one] | 78.3 ± 3.51 | 186 ± 6 | 359 | 82.3 ± 2.52 | 1.41 | 18.6 ± 3.46 | 26.2 ± 4.03 | 1.67 | 8.55 ± 1.06 | 14.3 ± 1.56 | 197.333 ± 4.509 | 381 |  |  |  | 
7 | O=c1c2cc(Br)ccc2[nH]c(=S)n1-c1cccc(C(F)(F)F)c1 [Compound 3b, 6-Bromo-2-thioxo-3-(3-trifluoromethyl-phenyl)-2,3-dihydro-1H-quinazolin-4-one] |  |  |  |  | 1.72 | 6.25 ± 1.77 | 10.8 ± 2.48 | 1.45 | 29.1 ± 2.19 | 42.4 ± 1.91 |  | 427 | 62 ± 3.61 | 70.7 ± 2.52 |  | 
8 | Triton X-100 [reference compound] |  |  |  |  |  |  |  |  |  |  |  |  |  |  | 0.000 | 0.000
9 | Cc1cc(C(C)(C)C)c(O)c(C(C)(C)C)c1 [BHT, butylated hydroxy toluene, reference compound] |  | 54 ± 6 | 245 |  |  |  |  |  |  |  |  |  |  |  |  | 

From publication PMC10610505, “Synthesis and Biological Evaluation of Some New 3-Aryl-2-thioxo-2,3-dihydroquinazolin-4(1H)-ones and 3-Aryl-2-(benzylthio)quinazolin-4(3H)-ones as Antioxidants; COX-2, LDHA, α-Glucosidase and α-Amylase Inhibitors; and Anti-Colon Carcinoma and Apoptosis-Inducing Agents” (Pharmaceuticals, 2023)
